pIC50: −log10 of the molar value.
Key:
22Rv1 cells = assay: Cell proliferation assay (MTS) and trypan blue assay; assay type: cell-based, human; conditions: JQ1 0.25 μM every other day
Procedure: CellTiter 96® AQueous One Solution Cell Proliferation Assay (MTS) (Promega) was used to measure cell growth according to the manufacturer's instructions. Briefly, cells were plated in 96-well plates at a density of 2,000 cells per well. At the indicated times, 20 μL of Cell Titer 96R Aqueous One Solution Reagent was added to medium. After incubating for 1 hour at 37° C. in the cell incubator, cell growth was measured in a microplate reader at 490 nm.
Trypan blue assay was performed to measure cell growth according to the manufacturer's instructions. Briefly, cells were plated in 6-well plates at a density of about 5×10^4 to about 1×10^5 cells per well. At the indicated time points, cells were trypsinized and suspended in 1 mL 1×PBS. 100 μL cells and 100 μL trypan blue solution (Sigma-Aldrich) were mixed, and the number of viable cells was measured using the Bio-Rad automated cell counter.

C4-2 xenograft tumors = assay: Prostate cancer xenografts in NSG mice; assay type: in vivo; conditions: SPOP-F133V C4-2 xenografts; JQ1 50 mg/kg i.p. 5 days a week, day 21
Procedure: 6-week-old NOD-SCID IL-2-receptor gamma null (NSG) mice were generated and randomly divided into different experimental groups as indicated. All mice were housed in standard conditions with a 12-hour light/dark cycle and access to food and water ad libitum. For BRD2/3/4 knockdown studies, C4-2 cells (5×10^6), infected with lentivirus expressing empty vector (EV) or HA-SPOP-F133V mutant in combination with control shRNA or BRD2/3/4-specific shRNA, were mixed with Matrigel (in 100 μL 1×PBS plus 100 μL Matrigel (BD Biosciences)) and injected s.c. into the right flank of mice. After xenografts reached the size of about 100 mm^3, vehicle (10% beta cyclodextrin) or JQ1 (Sigma-Aldrich) at 50 mg/kg body weight was administered by i.p. injection 5 days a week. For studies with tumors treated with JQ1 and AKT inhibitor GDC-0068, C4-2 cells (5×10^6) infected with lentivirus expressing empty vector (EV) or HA-SPOP-F133V mutant were mixed with Matrigel (in 100 μL 1×PBS plus 100 μL Matrigel (BD Biosciences)) and injected s.c. into the right flank of mice. […] Growth in tumor volume was measured in a blinded fashion using digital caliper, and tumor volumes were estimated using the formula (L×W2)/2, where L is length of tumor and W is width. The volumes of tumors were compared, and P values were determined by a two-tailed Student's t test. […]

DU145 cells = assay: Clonogenic survival (colony formation) assay; assay type: cell-based, human; conditions: JQ1 for 3 days, harvested at day 10
Procedure: FIGS. 26A-26I. Determination of the role of DUB3-mediated stabilization of BRD4 in BET inhibitor resistance using both loss of function and gain of function approaches. (FIG. 26A) Western blot analysis of indicated proteins in PC-3 cells infected with lentivirus expressing control or DUB3-specific shRNA for 24 hours and then co-transfected with plasmids for wild-type (WT) and mutants of HA-DUB3 for 24 hours. (FIG. 26B) Western blot analysis of indicated proteins in PC-3 cells infected with lentivirus expressing control or DUB3-specific shRNAs for 24 hours and then co-transfected with the indicated plasmids for 24 hours. Cells were treated with MG132 for 8 hours before harvested. (FIG. 26C) DU145 cells were infected with lentivirus expressing control or DUB3-specific shRNAs. After 48 hours puromycin selection, cells were treated with I-BET (5 μM), PD0332991 (5 μM) or both followed by MTS assay. All data are shown as mean values±SD (n=6). ***P<0.001, n.s., not significant. (FIG. 26D, FIG. 26E) DU145 cells were infected with lentivirus expressing indicated shRNAs and/or plasmids. After 48 hours puromycin selection, cells were treated with JQ1 (2 μM), PD0332991 (5 μM) or both followed by MTS assay (FIG. 26D) and Western blot (FIG. 26E). The quantitative data are shown as mean values±SD (n=6). ***P<0.001, n.s., not significant. (FIG. 26F, FIG. 26G) DU145 cells were infected with lentivirus expressing indicated shRNAs and/or plasmids. After 48 hours puromycin selection, cells were treated with I-BET (5 μM), PD0332991 (5 μM) or both followed by MTS assay (FIG. 26F) and Western blot (FIG. 26G). All data are shown as mean values±SD (n=6). *P<0.05, ***P<0.001, n.s., not significant. (FIG. 26H) DU145 cells were infected with lentivirus expressing control, DUB3 expressing vector and/or control or BRD4-specific shRNAs. After 48 hours puromycin selection, cells were plated for clonogenic survival assay. Cells were treated with a series of JQ1 concentrations for 3 days and harvested at day 10. Colonies with more than 50 cells were counted. IC50 is shown as a dotted line in the middle of the graph. […] OE, overexpression. KD, shRNA-mediated knockdown. (FIG. 26I) DU145 cells were infected with lentivirus as in (FIG. 26H) for 48 hours and then treated with 0.5 μM of JQ1 for 3 days and harvested at day 10. Colonies were photographed and quantified. Data represent means±SEM (n=3); P values were determined by the unpaired two-tailed Student's t-test. *P<0.05, **P<0.01.
An appropriate number of cells for different dosages of JQ1 were plated onto 6-well plate and treated with JQ1 for three days. After three-day treatment, the medium was changed with fresh medium without drugs for another 8 days. […] Colonies with more than 50 cells were counted. […]

Cc1sc2c(c1C)C(c1ccc(Cl)cc1)=N[C@@H](CC(=O)OC(C)(C)C)c1nnc(C)n1-2 [JQ1]
cell growth (22Rv1 cells; EV-expressing 22Rv1 cells): inhibited growth | effect on cell growth (22Rv1 cells; SPOP-F133V-expressing 22Rv1 cells): largely impeded | xenograft tumor growth (C4-2 xenograft tumors): JQ1-resistance | pIC50 (DU145 cells; DU145 BRD4 KD (shRNA knockdown)): 6.56 | pIC50 (DU145 cells; DU145 DUB3 OE (overexpression)): 6.24 | pIC50 (DU145 cells; DU145 DUB3 OE BRD4 KD): 6.53 | pIC50 (DU145 cells; DU145 EV (control)): 6.38

Source: patent publication US12290521B2, “Methods and materials for identifying and treating BET inhibitor-resistant cancers” (Mayo Foundation for Medical Education and Research, priority 2018, dated 2025)
